Assay results as given in patent publication US12391664B2, “GluN2C/D subunit selective antagonists of the N-methyl-D-aspartate receptor” (Emory University, priority 2018, dated 2025).
Like-named read-outs stand apart in the source and are kept apart here. Marks after values point to notes of the source that are not given here.

Experiments:
[1] = biological target: T1, recombinant rat GluN1/GluN2D (Rattus norvegicus, UniProt P35439+Q62645); test: Two-electrode voltage-clamp recordings in Xenopus laevis oocytes, GluN2D; assay type: cell-based
T1 construct: expressed in transfected cells; host or cells: Xenopus laevis oocytes injected with cRNA (GluN1:GluN2 ratio 1:2)
Method in brief: (§1)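 Oocytes injected with rat GluN1/GluN2 cRNA (1:2), held 2–5 days at 15–17 °C, clamped at −40 mV in Ba2+-containing recording solution, pH 7.4, 23 °C. Compounds applied (up to 100 μM) with 100 μM glutamate plus 30 μM glycine. IC50 and Hill slope from concentration-response fits of averaged current inhibition.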

[2] = biological target: T2, recombinant rat GluN1/GluN2D (Rattus norvegicus, UniProt Q62645); test: as above; assay type: cell-based; conditions: for GluN2D IC50: oocytes, 100 μM glutamate and 30 μM glycine; for 2A IC50 / 2D IC50 / 2B IC50 / 2D IC50: ratio of IC50 values
T2 construct: expressed in transfected cells; host or cells: Xenopus laevis oocytes injected with cRNA (GluN1:GluN2 ratio 1:2)
Method in brief: as §1

[3] = biological target: T3, recombinant rat GluN1/GluN2C (Rattus norvegicus, UniProt Q00961); test: Two-electrode voltage-clamp recordings in Xenopus laevis oocytes, GluN2C; assay type: cell-based; conditions: for I3 μM/Icontrol (mean ± SEM, %) GluN2C: 3 μM compound with 100 μM glutamate and 30 μM glycine, control set as 1; for GluN2C IC50: oocytes, 100 μM glutamate and 30 μM glycine
T3 construct: expressed in transfected cells; host or cells: Xenopus laevis oocytes injected with cRNA (GluN1:GluN2 ratio 1:2)
Method in brief: as §1

[4] = biological target: T4, recombinant rat GluN1/GluN2C (Rattus norvegicus, UniProt P35439+Q00961); test: as above; assay type: cell-based
T4 construct: expressed in transfected cells; host or cells: Xenopus laevis oocytes injected with cRNA (GluN1:GluN2 ratio 1:2)
Method in brief: as §1

[5] = biological target: T5, recombinant rat GluN1/GluN2B (Rattus norvegicus, UniProt P35439+Q00960); test: Two-electrode voltage-clamp recordings in Xenopus laevis oocytes, GluN2B; assay type: cell-based; conditions: oocytes, 100 μM glutamate and 30 μM glycine
T5 construct: expressed in transfected cells; host or cells: Xenopus laevis oocytes injected with cRNA (GluN1:GluN2 ratio 1:2)
Method in brief: as §1

[6] = biological target: T6, recombinant rat GluN1/GluN2B (Rattus norvegicus, UniProt Q00960); test: as above; assay type: cell-based; conditions: for I3 μM/Icontrol (mean ± SEM, %) GluN2B: 3 μM compound with 100 μM glutamate and 30 μM glycine, control set as 1; for GluN2B IC50: oocytes, 100 μM glutamate and 30 μM glycine
T6 construct: expressed in transfected cells; host or cells: Xenopus laevis oocytes injected with cRNA (GluN1:GluN2 ratio 1:2)
Method in brief: as §1

[7] = biological target: T7, recombinant rat GluN1/GluN2A (Rattus norvegicus, UniProt Q00959); test: Two-electrode voltage-clamp recordings in Xenopus laevis oocytes, GluN2A; assay type: cell-based; conditions: for I3 μM/Icontrol (mean ± SEM, %) GluN2A: 3 μM compound with 100 μM glutamate and 30 μM glycine, control set as 1; for GluN2A IC50: oocytes, 100 μM glutamate and 30 μM glycine
T7 construct: expressed in transfected cells; host or cells: Xenopus laevis oocytes injected with cRNA (GluN1:GluN2 ratio 1:2)
Method in brief: as §1

[8] = biological target: T8, recombinant rat GluN1/GluN2A (Rattus norvegicus, UniProt P35439+Q00959); test: as above; assay type: cell-based; conditions: oocytes, 100 μM glutamate and 30 μM glycine
T8 construct: expressed in transfected cells; host or cells: Xenopus laevis oocytes injected with cRNA (GluN1:GluN2 ratio 1:2)
Method in brief: as §1

[9] = test system: recombinant GluN2A-D subunits; test: Two-electrode voltage-clamp recordings, statements on all receptors; assay type: cell-based, rat
Procedure: All target compounds were evaluated for activity by the Traynelis laboratory at Emory University using two-electrode voltage-clamp recordings performed in Xenopus laevis oocytes expressing recombinant GluN2A-D subunits (Table 1). […] Two ester compounds 997-65 and 997-66 also performed no inhibition at GluN2A to GluN2D receptors. […] Consequently, for the compounds that Acker et al. already published, it was necessary to increase the concentration to 100 μM when collecting data for a concentration effect curve. […] Therefore, under this condition, we can only conclude that compound 997-67 remained potent at GluN2C/D-containing receptors, but its selectivity over GluN2A- and GluN2B-containing receptors could not be compared to 997-57. […] Finally, replacing the carboxylic acid to the bio-isostere amide yielded compounds 997-96 and 997-115, which dropped the potency 2- to 4-fold in comparison to their corresponding acids 997-74 and 997-114.
Two-electrode voltage-clamp recordings were performed in Xenopus laevis oocytes that were injected with mRNA to express recombinant rat GluN1/GluN2A, GluN1/GluN2B, GluN1/GluN2C, and GluN1/GluN2D. The recordings using unfertilized oocytes from Xenopus laevis were permitted by Emory University Institutional Animal Care and Use Committee (IACUC). An automatic injector (Nanoject II, Drummond Scientific) was used for cRNA injection using the pipettes filled with mineral oil. The cRNA that transcribed in vitro via the mMessage Machine kit (Ambion) was diluted with nuclease-free water, and then injected at GluN1/GluN2 with a ratio of 1:2. The oocytes were stored in Barth's solution that contained 88 mM NaCl, 5.0 mM Tris-HCl, 2.4 mM NaHCO3, 1.0 mM KCl, 0.84 mM MgSO4, 0.41 mM CaCl2, 0.33 mM Ca(NO3)2, 0.1 mg/ml gentamycin sulfate, 1.0 U/ml penicillin, and 1 μg/ml streptomycin at a pH of 7.4 and temperatures of 15-17° C. for two to five days before the two-electrode voltage-clamp recordings. When recording, the oocytes were placed in a perfusion chamber and continually washed with the recording solution comprised of 90 mM NaCl, 1.0 mM KCl, 0.50 mM BaCl2, 0.005 mM EDTA, and 10 mM HEPES at a pH of 7.4 and a temperature of 23° C. Glass electrodes with a tip resistance of 0.5 to 2.5 MΩ were obtained from thin-walled glass capillary tubes. Voltage electrodes and current electrodes were filled with 0.3 M and 3.0 M KCl, respectively. The recordings were executed with the oocytes membrane potential holding at −40 m V by an OC-725 amplifier (Warner Instrument Co). All compounds were dissolved in dimethyl sulfoxide (DMSO) as 20 mM stock solutions and future diluted to reach the desired concentration (0.05-0.5% (vol/vol) DMSO) in recording solution comprised of 30 μM glycine and 100 μM glutamate. Each compound was recorded 3-7 times in the least 4 oocytes from at least 2 different Xenopus laevis.
To evaluate the inhibition of compounds, the concentration-response curve was fitted with the average two-electrode voltage-clamp recording results with the equation
[formula] • where IC50 is the concentration of compounds that inhibit half maximal of the current response and N is the Hill slope.

[10] = mean IC50 with bottom and top 95% confidence interval, read-out: Avg. GluN2D IC50 (95% CI)
[11] = oocytes, 100 μM glutamate and 30 μM glycine, read-out: GluN2D IC50
[12] = mean IC50 with bottom and top 95% confidence interval, read-out: Avg. GluN2C IC50 (95% CI)
[13] = oocytes, 100 μM glutamate and 30 μM glycine, read-out: GluN2C IC50

T3 sequence (Q00961 20-1237, other chains not shown): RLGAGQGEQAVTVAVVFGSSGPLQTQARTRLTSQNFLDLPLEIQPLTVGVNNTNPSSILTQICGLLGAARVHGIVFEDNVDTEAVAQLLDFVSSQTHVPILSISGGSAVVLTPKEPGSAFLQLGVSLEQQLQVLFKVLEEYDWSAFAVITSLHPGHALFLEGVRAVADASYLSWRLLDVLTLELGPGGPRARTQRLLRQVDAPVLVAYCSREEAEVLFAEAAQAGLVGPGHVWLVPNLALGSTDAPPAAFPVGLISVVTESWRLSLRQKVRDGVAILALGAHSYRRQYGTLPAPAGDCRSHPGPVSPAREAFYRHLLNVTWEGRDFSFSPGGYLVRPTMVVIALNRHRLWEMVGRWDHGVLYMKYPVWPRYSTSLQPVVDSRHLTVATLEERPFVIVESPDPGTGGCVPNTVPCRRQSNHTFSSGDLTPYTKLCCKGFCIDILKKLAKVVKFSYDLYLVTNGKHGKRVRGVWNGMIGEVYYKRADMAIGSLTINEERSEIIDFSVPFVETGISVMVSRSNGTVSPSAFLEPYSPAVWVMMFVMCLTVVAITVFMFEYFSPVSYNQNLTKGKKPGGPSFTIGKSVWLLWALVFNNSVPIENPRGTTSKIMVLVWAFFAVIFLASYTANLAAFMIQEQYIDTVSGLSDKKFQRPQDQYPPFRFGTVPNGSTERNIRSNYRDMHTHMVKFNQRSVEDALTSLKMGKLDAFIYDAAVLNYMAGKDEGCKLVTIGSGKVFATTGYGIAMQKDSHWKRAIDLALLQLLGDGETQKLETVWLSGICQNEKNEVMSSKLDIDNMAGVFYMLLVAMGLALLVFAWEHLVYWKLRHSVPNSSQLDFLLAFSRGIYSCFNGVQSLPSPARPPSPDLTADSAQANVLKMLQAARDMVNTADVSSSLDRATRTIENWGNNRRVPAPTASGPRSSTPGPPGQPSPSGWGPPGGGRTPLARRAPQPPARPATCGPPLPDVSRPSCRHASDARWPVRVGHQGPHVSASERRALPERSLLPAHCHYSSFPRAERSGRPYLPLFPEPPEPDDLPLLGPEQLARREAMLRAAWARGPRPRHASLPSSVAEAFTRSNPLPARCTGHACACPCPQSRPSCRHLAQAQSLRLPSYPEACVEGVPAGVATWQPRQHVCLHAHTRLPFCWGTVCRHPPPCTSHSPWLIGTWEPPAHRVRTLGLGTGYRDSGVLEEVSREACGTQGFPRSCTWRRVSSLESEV
T4 sequence (Q00961 20-1237, other chains not shown): as above
T2 sequence (Q62645 28-1323, other chains not shown): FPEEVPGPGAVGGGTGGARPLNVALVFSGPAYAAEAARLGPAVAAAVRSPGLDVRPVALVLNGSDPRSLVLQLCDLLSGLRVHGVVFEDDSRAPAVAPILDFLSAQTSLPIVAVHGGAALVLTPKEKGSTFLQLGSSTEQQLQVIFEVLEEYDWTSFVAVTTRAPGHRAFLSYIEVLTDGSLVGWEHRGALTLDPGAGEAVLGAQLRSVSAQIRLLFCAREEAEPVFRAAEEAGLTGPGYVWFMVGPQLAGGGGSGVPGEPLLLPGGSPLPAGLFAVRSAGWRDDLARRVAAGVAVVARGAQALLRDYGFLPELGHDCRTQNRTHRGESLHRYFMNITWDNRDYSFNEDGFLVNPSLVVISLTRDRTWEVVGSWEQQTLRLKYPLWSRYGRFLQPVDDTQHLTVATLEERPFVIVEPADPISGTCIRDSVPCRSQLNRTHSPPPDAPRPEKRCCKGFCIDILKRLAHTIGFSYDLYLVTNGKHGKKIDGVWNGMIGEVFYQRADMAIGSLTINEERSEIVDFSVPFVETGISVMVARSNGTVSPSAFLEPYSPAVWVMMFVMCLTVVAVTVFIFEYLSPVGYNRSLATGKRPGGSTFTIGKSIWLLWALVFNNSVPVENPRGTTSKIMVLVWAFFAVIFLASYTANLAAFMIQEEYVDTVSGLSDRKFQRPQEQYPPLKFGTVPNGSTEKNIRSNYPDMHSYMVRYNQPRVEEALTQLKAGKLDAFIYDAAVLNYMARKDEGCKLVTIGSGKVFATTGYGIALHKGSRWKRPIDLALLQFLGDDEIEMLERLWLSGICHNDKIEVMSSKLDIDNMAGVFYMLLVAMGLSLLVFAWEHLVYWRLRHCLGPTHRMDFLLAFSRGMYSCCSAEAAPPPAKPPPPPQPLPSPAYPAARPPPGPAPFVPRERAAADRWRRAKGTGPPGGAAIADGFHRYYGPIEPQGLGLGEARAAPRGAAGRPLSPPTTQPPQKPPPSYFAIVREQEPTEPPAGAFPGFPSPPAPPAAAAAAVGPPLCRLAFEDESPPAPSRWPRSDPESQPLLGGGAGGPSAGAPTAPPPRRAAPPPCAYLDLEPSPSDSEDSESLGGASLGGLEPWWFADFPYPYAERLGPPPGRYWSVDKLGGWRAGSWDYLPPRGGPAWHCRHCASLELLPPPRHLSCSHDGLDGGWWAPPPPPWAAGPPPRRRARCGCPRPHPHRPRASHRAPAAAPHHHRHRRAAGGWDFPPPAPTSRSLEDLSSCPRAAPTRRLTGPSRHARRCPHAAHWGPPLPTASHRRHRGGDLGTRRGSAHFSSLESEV
T1 sequence (Q62645 28-1323, other chains not shown): as above
T6 sequence (Q00960 27-1482, other chains not shown): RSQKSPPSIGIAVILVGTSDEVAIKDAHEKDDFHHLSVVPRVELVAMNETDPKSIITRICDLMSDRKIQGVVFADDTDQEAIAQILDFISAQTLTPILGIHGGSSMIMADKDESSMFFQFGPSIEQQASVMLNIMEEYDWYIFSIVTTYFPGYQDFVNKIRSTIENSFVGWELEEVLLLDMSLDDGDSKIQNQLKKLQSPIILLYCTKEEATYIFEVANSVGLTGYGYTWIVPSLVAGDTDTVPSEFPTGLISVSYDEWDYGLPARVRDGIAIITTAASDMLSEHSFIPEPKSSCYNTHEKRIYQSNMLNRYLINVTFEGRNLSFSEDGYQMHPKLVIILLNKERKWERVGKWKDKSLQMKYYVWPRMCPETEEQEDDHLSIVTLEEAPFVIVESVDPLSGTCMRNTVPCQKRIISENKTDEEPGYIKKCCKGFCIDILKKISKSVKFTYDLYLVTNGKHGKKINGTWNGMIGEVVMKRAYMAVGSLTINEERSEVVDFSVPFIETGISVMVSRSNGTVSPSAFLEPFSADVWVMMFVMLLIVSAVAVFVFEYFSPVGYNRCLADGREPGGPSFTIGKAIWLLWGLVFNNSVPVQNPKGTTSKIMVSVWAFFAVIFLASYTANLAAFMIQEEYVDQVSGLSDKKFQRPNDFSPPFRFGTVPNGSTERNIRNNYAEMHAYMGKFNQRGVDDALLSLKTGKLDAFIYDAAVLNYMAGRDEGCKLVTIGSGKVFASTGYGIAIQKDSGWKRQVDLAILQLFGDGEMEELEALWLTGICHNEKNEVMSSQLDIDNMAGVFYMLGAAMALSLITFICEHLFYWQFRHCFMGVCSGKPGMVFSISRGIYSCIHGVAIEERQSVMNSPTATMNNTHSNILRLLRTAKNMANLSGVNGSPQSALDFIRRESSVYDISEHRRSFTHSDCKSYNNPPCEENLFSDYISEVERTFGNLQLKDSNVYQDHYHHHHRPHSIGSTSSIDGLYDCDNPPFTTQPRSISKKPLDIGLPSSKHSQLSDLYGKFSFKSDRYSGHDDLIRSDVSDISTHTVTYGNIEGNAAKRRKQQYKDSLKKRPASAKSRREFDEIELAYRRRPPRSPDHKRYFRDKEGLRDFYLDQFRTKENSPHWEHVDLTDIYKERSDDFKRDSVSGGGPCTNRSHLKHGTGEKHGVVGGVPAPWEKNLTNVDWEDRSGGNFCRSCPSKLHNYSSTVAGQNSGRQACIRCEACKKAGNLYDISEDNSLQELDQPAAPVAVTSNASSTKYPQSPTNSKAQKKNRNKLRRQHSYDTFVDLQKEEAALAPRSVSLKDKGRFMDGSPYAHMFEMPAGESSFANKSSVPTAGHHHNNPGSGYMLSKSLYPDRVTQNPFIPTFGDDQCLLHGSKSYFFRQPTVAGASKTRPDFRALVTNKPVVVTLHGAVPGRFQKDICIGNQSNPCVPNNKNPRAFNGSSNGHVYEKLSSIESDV

IC50 [1, 11]	IC50 [4, 13]	IC50 [5]	IC50 [8]	2B IC50 / 2D IC50 [2]	SMILES	GluN2D IC50 [2]	GluN2C IC50 [3]	activity at all receptors (GluN2A to GluN2D), in words [9]	GluN2B IC50 [6]	GluN2A IC50 [7]	other results
130 nM	200 nM	1900 nM	1900 nM	–	Cc1ccc2[nH]c(=O)c(C3=NN(C(=O)C(F)(F)CC(=O)O)C(c4ccc(Cl)cc4)C3)c(-c3ccc(Cl)cc3)c2c1 (single isomer, unassigned; (-)) [(−)-997-90]	–	–	–	–	–	IC50 [1, 10]: 130 nM; I3 μM/Icontrol (mean ± SEM, %) GluN2D ([2]; 3 μM compound with 100 μM glutamate and 30 μM glycine, control set as 1): 3.4 ± 1.2%; I3 μM/Icontrol (mean ± SEM, %) GluN2C ([3]; listed as (−)-90): 7.0 ± 2.2%; IC50 [4, 12]: 210 nM; I3 μM/Icontrol (mean ± SEM, %) GluN2B ([6]; listed as (−)-90): 34 ± 5.0%; I3 μM/Icontrol (mean ± SEM, %) GluN2A ([7]; listed as (−)-90): 33 ± 4.5%
–	–	–	–	–	O=C(O)CCC(=O)N1N=C(c2c(-c3ccc(Cl)cc3)c3ccccc3[nH]c2=O)CC1c1ccncc1 (centres unmarked) [997-79, 4-(3-(4-(4-chlorophenyl)-2-oxo-1,2-dihydroquinolin-3-yl)-5-(pyridin-4-yl)-4,5-dihydro-1H-pyrazol-1-yl)-4-oxobutanoic acid]	NE (NE indicates less than 50% inhibition at 30 μM.)	NE (NE indicates less than 50% inhibition at 30 μM.)	inactive	NE (NE indicates less than 50% inhibition at 30 μM.)	NE (NE indicates less than 50% inhibition at 30 μM.)	–
–	–	–	–	–	O=C(O)CCC(=O)N1N=C(c2ccccc2-c2ccc(Cl)cc2)CC1c1cccc2c1OCO2 (centres unmarked) [997-122, 4-(5-(benzo[d][1,3]dioxol-4-yl)-3-(4′-chloro-[1,1′-biphenyl]-2-yl)-4,5-dihydro-1H-pyrazol-1-yl)-4-oxobutanoic acid]	NE (NE indicates less than 50% inhibition at 30 μM.)	NE (NE indicates less than 50% inhibition at 30 μM.)	inactive	NE (NE indicates less than 50% inhibition at 30 μM.)	NE (NE indicates less than 50% inhibition at 30 μM.)	–
–	–	–	–	–	O=C(O)CC(F)(F)C(=O)N1N=C(c2ccccc2-c2ccc(Cl)cc2)CC1c1cccc2c1OCO2 (centres unmarked) [997-119, 4-(5-(benzo[d][1,3]dioxol-4-yl)-3-(4′-chloro-[1,1′-biphenyl]-2-yl)-4,5-dihydro-1H-pyrazol-1-yl)-3,3-difluoro-4-oxobutanoic acid]	NE (NE indicates less than 50% inhibition at 30 μM.)	NE (NE indicates less than 50% inhibition at 30 μM.)	inactive	NE (NE indicates less than 50% inhibition at 30 μM.)	NE (NE indicates less than 50% inhibition at 30 μM.)	–
–	–	–	–	–	CCOC(=O)C(F)(F)CC(=O)N1N=C(c2c(-c3ccc(Cl)cc3)c3ccccc3[nH]c2=O)CC1c1ccc(Cl)cc1 (centres unmarked) [997-66, Ethyl 4-{5-(4-chlorophenyl)-3-[4-(4-chlorophenyl)-2-oxo-1,2-dihydroquinolin-3-yl]-4,5-dihydro-1H-pyrazol-1-yl}-2,2-difluoro-4-oxobutanoate]	NE (NE indicates less than 50% inhibition at 30 μM.)	NE (NE indicates less than 50% inhibition at 30 μM.)	no inhibition	NE (NE indicates less than 50% inhibition at 30 μM.)	NE (NE indicates less than 50% inhibition at 30 μM.)	–
–	–	–	–	–	O=c1[nH]c2ccccc2c(-c2ccc(Cl)cc2)c1C1=NNC(c2ccc(Cl)cc2)C1 (centres unmarked) [997-70, 4-(4-chlorophenyl)-3-[5-(4-chlorophenyl)-4,5-dihydro-1H-pyrazol-3-yl]quinolin-2(1H)-one]	NE (NE indicates less than 50% inhibition at 30 μM.)	NE (NE indicates less than 50% inhibition at 30 μM.)	inactive	NE (NE indicates less than 50% inhibition at 30 μM.)	NE (NE indicates less than 50% inhibition at 30 μM.)	–
–	70 nM	11000 nM	3000 nM	183	O=C(O)/C=C(/F)C(=O)N1N=C(c2c(-c3ccc(Cl)cc3)c3ccccc3[nH]c2=O)CC1c1ccc(Cl)cc1 (centres unmarked) [997-101, (E)-4-(5-(4-chlorophenyl)-3-(4-(4-chlorophenyl)-2-oxo-1,2-dihydroquinolin-3-yl)-4,5-dihydro-1H-pyrazol-1-yl)-3-fluoro-4-oxobut-2-enoic acid]	–	–	–	–	–	IC50 ([1]; read-out: IC50 at GluN2D-containing receptors): 60 nM; selectivity at GluN2D- over GluN2A-containing receptor [2]: 50 fold; 2A IC50 / 2D IC50 [2]: 50
350 nM	480 nM	30000 nM	16000 nM	86	O=C(O)CCC(=O)N1N=C(c2c(-c3ccc(Cl)cc3)c3ccccc3[nH]c2=S)CC1c1ccc(Cl)cc1 (centres unmarked) [997-97, 4-(5-(4-chlorophenyl)-3-(4-(4-chlorophenyl)-2-thioxo-1,2-dihydroquinolin-3-yl)-4,5-dihydro-1H-pyrazol-1-yl)-4-oxobutanoic acid]	–	–	–	–	–	2A IC50 / 2D IC50 [2]: 46
< 1000 nM	2100 nM	1800 nM	4100 nM	–	Cc1ccc2[nH]c(=O)c(C3=NN(C(=O)C(F)(F)CC(=O)O)C(c4ccc(Cl)cc4)C3)c(-c3ccc(Cl)cc3)c2c1 (single isomer, unassigned; (+)) [(+)-997-90]	–	–	–	–	–	IC50 [1, 10]: 660 nM; I/Icontrol (mean ± SEM, %) GluN2D, data with ** ([2]; 1 μM compound with 100 μM glutamate and 30 μM glycine, control set as 1): 31 ± 9.8** %; I3 μM/Icontrol (mean ± SEM, %) GluN2C ([3]; listed as (+)-90): 36 ± 3.0%; IC50 [4, 12]: 2100 nM; I3 μM/Icontrol (mean ± SEM, %) GluN2B ([6]; listed as (+)-90): 53 ± 3.6%; I3 μM/Icontrol (mean ± SEM, %) GluN2A ([7]; listed as (+)-90): 72 ± 2.9%
3740 nM	3690 nM	12000 nM	9010 nM	3	O=C(O)CC(F)(F)C(=O)N1N=C(c2ccccc2-c2ccc(Cl)cc2)CC1c1ccc(Cl)s1 (centres unmarked) [997-118, 4-(3-(4′-chloro-[1,1′-biphenyl]-2-yl)-5-(5-chlorothiophen-2-yl)-4,5-dihydro-1H-pyrazol-1-yl)-3,3-difluoro-4-oxobutanoic acid]	–	–	–	–	–	–
2870 nM	3440 nM	8790 nM	17200 nM	3	O=C(O)CC(F)(F)C(=O)N1N=C(c2ccccc2-c2ccc(Cl)cc2)CC1c1ccc(OC(F)(F)F)cc1 (centres unmarked) [997-117, 4-(3-(4′-chloro-[1,1′-biphenyl]-2-yl)-5-(4-(trifluoromethoxy)phenyl)-4,5-dihydro-1H-pyrazol-1-yl)-3,3-difluoro-4-oxobutanoic acid]	–	–	–	–	–	–
